Measurements as given in ChEMBL document CHEMBL3227967, “Quantitative structure-activity relationships in 1-aryl-2-(alkylamino)ethanol antimalarials” (J Med Chem, 1979).

system: Plasmodium berghei; assay: Antimalarial activity against Plasmodium berghei; format: functional

| SMILES | log(1/C) |
| --- | --- |
| OC(CC1CCCCN1)c1cc2c(Cl)cc(Cl)cc2c2ccc(Cl)cc12 (stereo not given) | 3.79 |
| CCCCN(CCCC)CC(O)c1cc(-c2ccc(Cl)c(Cl)c2)nc2c(Cl)cc(Cl)cc12 (stereo not given) | 4.21 |
| CCCCN(CCCC)CC(O)c1cc2c(Cl)cc(Cl)cc2c2cnccc12 (stereo not given) | 2.94 |
| CCCCN(CCCC)CC(O)c1cc(-c2ccc(Cl)cc2)cc2cc(Cl)c(OC)cc12 (stereo not given) | 2.96 |
| CCCCN(CCCC)CC(O)c1cc2ccccc2c2cc(C(F)(F)F)ccc12 (stereo not given) | 3.23 |
| CCCCN(CCCC)CC(O)c1cc(OCC)nc2ccccc12 (stereo not given) | 2.24 |
| OC(CC1CCCCN1)c1cc2cc(C(F)(F)F)ccc2c2ccccc12 (stereo not given) | 4.39 |
| OC(CC1CCCCN1)c1cc(C(F)(F)F)nc2ccc(C(F)(F)F)cc12 (stereo not given) | 3.65 |
| CCCCN(CCCC)CC(O)c1cc(/C=C/c2ccc(Cl)cc2)nc(/C=C/c2ccc(Cl)cc2)c1 (stereo not given) | 4.18 |
| CCCCN(CCCC)CC(O)c1cc2ccccc2c2cccc(Cl)c12 (stereo not given) | 2.32 |
| CCCCN(CCCC)CC(O)c1cc2c(Cl)cc(Cl)cc2c2c(Cl)cc(Cl)cc12 (stereo not given) | 4.05 |
| CCCCCCCN(CCCCCCC)CC(O)c1cc2ccsc2c2cc(C(F)(F)F)ccc12 (stereo not given) | 2.77 |
| CCCCN(CCCC)CC(O)c1cc(-c2cccs2)nc2cccc(Br)c12 (stereo not given) | 3.06 |
| CC(C)(C)NCC(O)c1cc(C(F)(F)F)nc2c(C(F)(F)F)cccc12 (stereo not given) | 2.64 |
| CCCCN(CCCC)CC(O)c1cc2ccc(Br)cc2c2sccc12 (stereo not given) | 2.82 |
| CCCCCCCN(CCCCCCC)CC(O)c1cccc2c3ccccc3c3ccccc3c12 (stereo not given) | 2.28 |
| CCCCCCCN(CCCCCCC)CC(O)c1cc2ccc(Cl)cc2c2cc(Cl)ccc12 (stereo not given) | 3.12 |
| CCCCCCCN(CCCCCCC)CC(O)c1cc2c(Cl)cc(Cl)cc2c2ncccc12 (stereo not given) | 2.86 |
| CCCCN(CCCC)CC(O)c1cc2ccc(C(F)(F)F)cc2c2ccccc12 (stereo not given) | 2.8 |
| OC(CC1CCCCN1)c1cc2cc(Cl)c(Cl)cc2c2cc(Cl)ccc12 (stereo not given) | 3.69 |
| OC(CN1CCCCCC1)c1cc(-c2cccs2)nc2cccc(Br)c12 (stereo not given) | 2.89 |
| OC(CC1CCCCN1)c1cc2cc(Cl)c(Cl)cc2c2cc(C(F)(F)F)ccc12 (stereo not given) | 4.19 |
| CCCCN(CCCC)CC(O)c1cc(-c2ccc(Cl)cc2)nc2cc(F)ccc12 (stereo not given) | 3.62 |
| CCCCN(CCCC)CC(O)c1ccc(-c2ccc(Cl)cc2)c2c(Cl)cc(Cl)cc12 (stereo not given) | 3.33 |
| CCCCN(CCCC)CC(O)c1cc2cc(Cl)cc(Cl)c2c2ccc(Cl)cc12 (stereo not given) | 4.12 |

| SMILES | log(1/C) |
| --- | --- |
| CCCCN(CCCC)CC(O)c1cc2cc(Cl)ccc2c2cc(Cl)ccc12 (stereo not given) | 3.81 |
| CCCCCCCN(CCCCCCC)CCCC(O)c1cc2ccc(C(F)(F)F)cc2c2cc(C(F)(F)F)ccc12 (stereo not given) | 3.72 |
| OC(CC1CCCCN1)c1cc(Oc2ccc(Cl)cc2)nc2ccc(Cl)cc12 (stereo not given) | 3.23 |
| CCN(CC)CC(O)c1cc2c(Cl)cc(Cl)cc2c2cc(Cl)ccc12 (stereo not given) | 3.9 |
| CCCCN(CCCC)CCC(O)c1cc(C(F)(F)F)nc2ccc(C(F)(F)F)cc12 (stereo not given) | 3.31 |
| CCCCCCCN(CCCCCCC)CC(O)c1cccc2c1cc(Cl)c1cc(Cl)c(Cl)cc12 (stereo not given) | 2.71 |
| CCCCN(CCCC)CC(O)c1cc(Oc2ccc(Cl)cc2)cc2c(Cl)cc(Cl)cc12 (stereo not given) | 2.57 |
| CCCCN(CCCC)CC(O)c1c(C)cnc2c1cc(Cl)c1ccccc12 (stereo not given) | 2.38 |
| CCCCCCN(CCCCCC)CC(O)c1cc(-c2ccc(Cl)cc2)nc2c(C)cc(C)cc12 (stereo not given) | 3.75 |
| CCCCN(CCCC)CC(O)c1ccnc2cc(C(F)(F)F)ccc12 (stereo not given) | 2.51 |
| CCCCN(CCCC)CC(O)c1cc(-c2ccc(Cl)cc2)nc(-c2ccc(C(F)(F)F)cc2)c1 (stereo not given) | 3.43 |
| CCCCN(CCCC)CC(O)c1cc(-c2ccc(Cl)cc2)nc(-c2ccc(OC)cc2)c1 (stereo not given) | 2.84 |
| CCCCN(CCCC)CC(O)c1cc(C(C)(C)C)nc2c1ccc1ccccc12 (stereo not given) | 2.65 |
| CCCCCCCN(CCCCCCC)CC(O)c1cc2ccsc2c2cc(Br)ccc12 (stereo not given) | 2.68 |
| CCCCCCCN(CCCCCCC)CC(O)c1ccc2cc3ccccc3cc2c1 (stereo not given) | 2.62 |
| CCCCN(CCCC)CC(O)/C(=C/c1ccc(C(F)(F)F)cc1)c1ccc(C(F)(F)F)cc1 (stereo not given) | 3.22 |
| CCCCCCCN(CCCCCCC)CC(O)c1cc2cc(Cl)ccc2c2cc(C(F)(F)F)ccc12 (stereo not given) | 3.68 |
| CCCCCCCN(CCCCCCC)CC(O)c1cc2ccc(Cl)cc2c2ccccc12 (stereo not given) | 2.44 |
| CCCCN(CCCC)CC(O)c1cc(-c2ccc(Cl)cc2)nc2c(OC)ccc(OC)c12 (stereo not given) | 2.52 |
| CCCCCCN(CCCCCC)CC(O)c1cc(-c2ccc(OC)cc2)nc2cc(Cl)c(OC)cc12 (stereo not given) | 3.38 |
| CCCN(CCC)CC(O)c1cccc2c1cc(Cl)c1ccccc12 (stereo not given) | 2.02 |
| CCCCN(CCCC)CC(O)c1cc2ccc(C(F)(F)F)cc2c2cc(C)sc12 (stereo not given) | 2.52 |
| CCCCCCCN(CCCCCCC)CC(O)c1cc2ccccc2c2cc(Cl)ccc12 (stereo not given) | 2.59 |
| CCCC(CCC)NCC(O)c1cc(-c2ccc(Cl)cc2)nc(-c2ccc(Cl)cc2)c1 (stereo not given) | 4.13 |
| CCCCCCN(CCCCCC)CC(O)c1cc(-c2ccc(Cl)c(Cl)c2)nc2ccc(OC)cc12 (stereo not given) | 3.35 |

| SMILES | log(1/C) |
| --- | --- |
| CCCCCN(CCCCC)CC(O)c1cccc2c1cc(Cl)c1ccccc12 (stereo not given) | 2.14 |
| CCN(CC)CC(O)c1cc(-c2ccccc2)nc2ccc(OC)cc12 (stereo not given) | 2.44 |
| CCCN(CCC)CC(O)c1cc(-c2ccc(Cl)cc2)nc(-c2ccc(Cl)cc2)c1 (stereo not given) | 3.3 |
| CCCCCCN(CCCCCC)CC(O)c1cccc2c1ccc1ccccc12 (stereo not given) | 2.03 |
| CCCCCN(CCCCC)CC(O)c1ccc(Br)c2ccccc12 (stereo not given) | 2.16 |
| CCCCCCN(CCCCCC)CC(O)c1cc(-c2ccc(Cl)cc2)nc(-c2ccc(Cl)cc2)c1 (stereo not given) | 3.18 |
| CCCCN(CCCC)CC(O)c1cccc2cc3c(Cl)cccc3cc12 (stereo not given) | 2.1 |
| OC(CNC1CC1)c1cc(-c2ccc(Cl)c(Cl)c2)nc2c(Cl)cc(Cl)cc12 (stereo not given) | 3.6 |
| CCCCN(CCCC)CC(O)c1cc2ccc(Cl)cc2nc1-c1ccc(Cl)cc1 (stereo not given) | 2.2 |
| CCCCN(CCCC)CC(O)c1cc2c(Cl)cc(Cl)cc2c2cc(C(F)(F)F)ccc12 (stereo not given) | 4.29 |
| OC(CC1CCCCN1)c1cc(Oc2ccc(Cl)cc2)nc2c(Cl)cc(Cl)cc12 (stereo not given) | 4.16 |
| OC(CC1CCCCN1)c1cc(-c2ccccc2)nc2c1ccc1ccccc12 (stereo not given) | 3.05 |
| CCCCCN(CCCCC)CC(O)c1cc(-c2ccc(Cl)cc2)nc(-c2ccc(Cl)cc2)c1 (stereo not given) | 3.13 |
| CCCCN(CCCC)CC(O)c1cc2sccc2c2ccsc12 (stereo not given) | 2.1 |
| COc1ccc(-c2cc(C(O)CC3CCCCN3)c3ccccc3n2)cc1 (stereo not given) | 2.53 |
| OC(CNC1CCCCC1)c1cc2ccccc2c2cc(OC(F)(F)F)ccc12 (stereo not given) | 3.34 |
| OC(CNC12CC3CC(CC(C3)C1)C2)c1cc(-c2ccc(Cl)cc2)nc2cc(Cl)ccc12 (stereo not given) | 3.24 |
| CCCCN(CCCC)CC(O)c1cc(C(=O)c2cccc(Cl)c2)nc2c(C(F)(F)F)cc(Cl)cc12 (stereo not given) | 3.98 |
| CCCCN(CCCC)CC(O)c1cccc2c1ccc1cc(Cl)c(Cl)cc12 (stereo not given) | 2.96 |
| CCCCCCCCN(CCCCCCCC)CCC(O)c1cc2c(O)cccc2c2ccccc12 (stereo not given) | 2.65 |
| CCCCN1CCCCC1CC(O)c1cc2ccccc2c2cc(Br)ccc12 (stereo not given) | 3.22 |
| CCCC(C)NCC(O)c1cc(-c2ccc(C(F)(F)F)cc2)nc(-c2ccc(C(F)(F)F)cc2)c1 (stereo not given) | 4.44 |
| CCCCN(CCCC)CC(O)c1cc(-c2ccc(OC)cc2)nc2cc(Cl)c(Cl)cc12 (stereo not given) | 3.63 |
| CCCCNCC(O)c1cc2c(Cl)cc(Cl)cc2c2cc(C(F)(F)F)ccc12 (stereo not given) | 4.48 |
| CCCC(CCC)NCC(O)c1cc(-c2ccc(C(F)(F)F)cc2)nc(-c2ccc(C(F)(F)F)cc2)c1 (stereo not given) | 4.35 |

| SMILES | log(1/C) |
| --- | --- |
| OC(CC1CCCCN1)c1cc(C(F)(F)F)nc2c(C(F)(F)F)cccc12 (stereo not given) | 4.41 |
| CCCCNCCC(O)c1c2ccccc2c(Cl)c2cc(C(F)(F)F)ccc12 (stereo not given) | 3 |
| CCCCN(CCCC)CC(O)c1c(Cl)cc(Cl)c2nc(-c3ccc(Cl)cc3)ccc12 (stereo not given) | 3.6 |
| OC(CC1CCCCN1)c1cc2ccccc2c2cc(C(F)(F)F)ccc12 (stereo not given) | 3.37 |
| OC(CNC1CCCCC1)c1cc(-c2ccc(C(F)(F)F)cc2)nc(-c2ccc(C(F)(F)F)cc2)c1 (stereo not given) | 4.17 |
| CCCCN(CCCC)CC(O)c1cc(Cl)cc2c1-c1ccc(Cl)cc1C2=O (stereo not given) | 3.39 |
| CCCCCCN(CCCCCC)CC(O)c1cc(-c2ccc(Cl)cc2)nc2cc(C(F)(F)F)ccc12 (stereo not given) | 2.85 |
| CCCCN(CCCC)CC(O)c1cc(-c2ccc(Cl)cc2)nc2c(C(F)(F)F)cccc12 (stereo not given) | 3.69 |
| OC(CNC12CC3CC(CC(C3)C1)C2)c1cc(-c2ccc(Cl)cc2)nc2c(Cl)cc(Cl)cc12 (stereo not given) | 3.59 |
| CCCCN(CCCC)CC(O)c1cc2ccc(C(F)(F)F)cc2c2cc(C(F)(F)F)ccc12 (stereo not given) | 4.1 |
| OC(CC1CCCCN1)c1cc2ccc(Cl)cc2c2cc(Cl)ccc12 (stereo not given) | 3.5 |
| OC(CC1CCCCN1)c1cc2c(Cl)cc(Cl)cc2c2ccccc12 (stereo not given) | 3.73 |
| CCCCCCCN(CCCCCCC)CC(O)c1cc2ccccc2c2ccc(Cl)cc12 (stereo not given) | 2.97 |
| OC(CC1CCCCN1)c1cc2ccc(C(F)(F)F)cc2c2cc(Br)ccc12 (stereo not given) | 3.86 |
| CCCCN(CCCC)CC(O)c1cc(-c2ccc(Cl)cc2)nc2c(C(F)(F)F)cc(Cl)cc12 (stereo not given) | 4.61 |
| CCCCN(CCCC)CC(O)c1cc2ccc(C(F)(F)F)cc2c2cc(Cl)ccc12 (stereo not given) | 3.88 |
| CCCCN(CCCC)CC(O)c1cc(C(F)(F)c2ccccc2)nc2c(Cl)cc(Cl)cc12 (stereo not given) | 2.61 |
| CCCCCCCN(CCCCCCC)CC(O)c1cc2c(Cl)cc(Cl)cc2c2cc(C(F)(F)F)ccc12 (stereo not given) | 3.53 |
| Cc1cccc2c(C(O)CC3CCCCN3)cc(-c3ccccc3)nc12 (stereo not given) | 3.38 |
| OC(CC1CCCCN1)c1ccnc2c(C(F)(F)F)cccc12 (stereo not given) | 2.75 |
| CCCCN(CCCC)CC(O)c1cc2ccc(C(F)(F)F)cc2c2ccsc12 (stereo not given) | 2.81 |
| CCCCCCCN(CCCCCCC)CC(O)c1cc2ccccc2c2cc(F)ccc12 (stereo not given) | 3.08 |
| CCN(CC)CC(O)c1cc(-c2ccc(OC)c(OC)c2)nc2ccc(Cl)cc12 (stereo not given) | 3.12 |
| CCCCCCCN(CCCCCCC)CC(O)c1cccc2cc3c(Cl)cccc3cc12 (stereo not given) | 2.44 |
| OC(CC1CCCCN1)c1cc2c(Cl)cc(Cl)cc2c2cc(Cl)ccc12 (stereo not given) | 4.12 |
